In ChEMBL document CHEMBL3868628, “Dimeric sesquiterpene and thiophenes from the roots of Echinops latifolius” (Bioorg Med Chem Lett, 2016):

How the values were obtained:
[1] = Antiinflammatory activity in mouse RAW264.7 cells assessed as reduction in LPS-induced NO production after 24 hrs in presence of LPS by colorimetric analysis; format: functional, cell-based; conditions: RAW264.7, 24 h
Mus musculus = organism: Mus musculus; assay: Cytotoxicity against mouse RAW264.7 cells assessed as reduction in cell viability at 1 to 10 uM after 24 hrs by cell counting based colorimetric analysis; format: toxicity; conditions: raw264.7, 24 h

Structure (SMILES)	IC50 [1] [µM]	Activity (Mus musculus)
C/C=C/C#CC#Cc1ccc(C(O)CO)s1 (stereo not given)	28.2	–
COc1ccc2c(c1)c(CC(=O)O)c(C)n2C(=O)c1ccc(Cl)cc1 [INDOMETHACIN]	13.2	–
CC#Cc1ccc(-c2ccc(C=O)s2)s1	> 100	–
C/C=C\C#CC#Cc1ccc(C(O)CO)s1 (stereo not given)	12.8	–
C=C1CCC[C@]2(C)C[C@]3(O)OC(=O)C(C)=C3C[C@@H]12 [ATRACTYLENOLIDE III]	> 100	–
CC#Cc1ccc(-c2ccc(C(=O)OC)s2)s1	> 100	–
N=C(N)NN [PIMAGEDINE]	24.2	–
C=C(C)[C@@H]1CC[C@]2(C)C(=C(C)OC3=C2C[C@H]2C4C[C@H](C(C)C)CC[C@@]4(C)CC(=O)[C@@]2(O)O3)C1 (stereo not given in full)	–	Toxic
CC#Cc1ccc(-c2ccc(C(O)CO)s2)s1 (stereo not given)	48.7	–
CC#Cc1ccc(-c2ccc(C(CO)OC)s2)s1 (stereo not given)	30.9	–
